According to paper PMC9356076, “An Integrated Pharmacological Counselling Approach to Guide Decision-Making in the Treatment with CDK4/6 Inhibitors for Metastatic Breast Cancer” (Frontiers in Pharmacology, 2022):
One block for each compound: values may come before it.

Assays:
P-glycoprotein (P-gp) = conditions: background statement, no reference given; cited from earlier work
[1] = cited from earlier work
[2] = tested on: breast cancer resistance protein (BCRP); conditions: background statement, no reference given; cited from earlier work
[3] = Therapeutic drug monitoring: steady-state plasma concentration in patients by LC-MS/MS
Description: (§2) Plasma was obtained by centrifugation at 2,450 g for 10 min at 4°C of whole blood EDTA tubes and stored at −80°C until analysis. Patients’ samples were analyzed with a newly developed LC-MS/MS method as previously reported ([Posocco et al., 2020]). Drug concentration was usually evaluated at specific time points, which allowed the evaluation of Cmin or Cmax at steady state. […] Last administration (self-reported) and sampling times were also recorded. According to the literature ([Verheijen et al., 2017]), the average exposure of the approved efficacious dose was used as a proxy of target Cmin and will be referred to as “target Cmin” in this article.
(§3) Descriptive statistics were used to present and analyze the TDM data. The mean population Cmin value reported in the literature for patients treated with the standard dose was used to evaluate the TDM target, and the ±20% intervals were calculated. This interval was based on acceptable variability of analytical data according to incurred sample reanalysis criteria ([FDA, 2018]; [EMA, 2022]). Patients who fell outside this range were considered to be potentially under or overexposed to the drugs.

[4] = tested on: HR-positive/HER2-negative MBC patients; test: Patient's clinical outcome of CDKi treatment for metastatic breast cancer; format: in vivo, human
From the text: (§1) Our counselling service was already available for other KI used in oncology as imatinib, sorafenib, regorafenib, sunitinib, lenvatinib, and three PARP inhibitors: olaparib, niraparib, and rucaparib. Written informed consent was obtained for pharmacogenetic and TDM analyses and the publication of the here presented reports. Any potentially identifying information was omitted. Data concerning age, disease, stage, and molecular profiling, treatment regimen and setting, drug dose, adverse drug reactions, and coadministered treatments were retrieved from the electronic medical record upon patients’ reporting by the prescribing medical oncologist. Toxicities were retrospectively collected through clinical records revision and graded according to Common Terminology Criteria for Adverse Events (CTCAE) Version 5.0.

[5] = tested on: HR-positive/HER2-negative MBC patients; test: Adverse drug reactions in treated patients, graded by CTCAE Version 5.0; format: in vivo, human; conditions: palbociclib 100 mg/day
From the text: as §1

clinical = conditions: human
Description: as §2, §3

UGT = conditions: background statement, no reference given; cited from earlier work

Structure (SMILES): CCN1CCN(Cc2ccc(Nc3ncc(F)c(-c4cc(F)c5nc(C)n(C(C)C)c5c4)n3)nc2)CC1 [abemaciclib]
- substrate of the efflux transporter P-gp (P-glycoprotein (P-gp)): substrates
- proposed target Cmin ([1]; abemaciclib, MONARCH 3 patients, 132 mg/twice day, ref US Food and Drug Administration, 2017b): 181 ng/mL
- substrate of / transport by BCRP [2]: substrates

Structure (SMILES): N#Cc1ccc(C(c2ccc(C#N)cc2)n2cncn2)cc1 [letrozole]
- proposed Cmin target value ([1]; letrozole, dedicated exposure-efficacy studies, ref FDA, 2021a): 85.6 ng/mL

Structure (SMILES): CC(=O)c1c(C)c2cnc(Nc3ccc(N4CCNCC4)cn3)nc2n(C2CCCC2)c1=O [palbociclib]
- Cmin (minimum plasma concentration) ([3]; Case I, palbociclib 75 mg/day + fulvestrant, steady state, 24 h after last intake): 27.3 ng/ml (palbociclib 75 mg/day)
- Cmin ([3]; Case II, after dose reduction to palbociclib 100 mg/day): 62.3 ng/mL
- concentration at 24 h ([3]; human, plasma, oral, 100 mg/day): 62.3 ng/mL
- Patient's clinical outcome ([4]; Case I, palbociclib 75 mg/day + fulvestrant, II line): systemic PD
- Patient's clinical outcome ([4]; Case I, palbociclib 75 mg/day + fulvestrant, II line, listed as Palbociclib): Palbociclib treatment failure due to disease progression
- neutropenia grade after dose reduction ([5]; Case II): grade 4
- neutropenia grade after dose reduction ([5]; Case V): grade 3
- concentration at 24 h (clinical; plasma, oral): 49 to 73 ng/mL

- concentration at 24 h (clinical; in vivo): 586 to 878 ng/mL
Structure (SMILES): CN(C)C(=O)c1cc2cnc(Nc3ccc(N4CCNCC4)cn3)nc2n1C1CCCC1 [ribociclib]
- substrate of the efflux transporter P-gp (P-glycoprotein (P-gp)): substrate
- reported mean Cmin (target population Cmin) ([1]; ribociclib standard dose 600 mg/day, ref FDA, 2021b): 732 ng/mL
- mean steady-state population Cmax ([1]; ribociclib): 2,237 ng/ml
- glucuronidation reaction by UGT (UGT): undergo a glucuronidation reaction
- Patient's clinical outcome ([4]; Case III, ribociclib 600 mg/day reduced to 400 mg and then 200 mg, I line): disease progression
- Patient's clinical outcome ([4]; Case III, ribociclib 600 mg/day reduced to 400 mg and then 200 mg, I line, listed as Ribociclib): The dose of ribociclib was reduced after more than 1 year of intermittent treatment due to toxicity. Ribociclib treatment ultimately failed
- substrate of / transport by BCRP [2]: no noticeable transport
